# Experimental data reported in patent publication US20070128217A1 (priority 2003, published 2007).
# How the values were obtained:
# [1] = system: rabbit serum obtained by immunizing a rabbit with the SARS-CoV strain Frankfurt 1; assay type: binding; parameters: Binding of a rabbit serum to linear peptides / Binding of a rabbit serum to looped peptides / Rabbit serum linear peptides / Rabbit serum looped peptides / Binding of a rabbit serum to linear peptides of protein N of SARS-CoV Urbani (Rabbit serum linear peptides) / Binding of a rabbit serum to looped/cyclic peptides of protein N of SARS-CoV Urbani (Rabbit serum looped peptides): unit not given here
# [2] = system: antibodies in sera from SARS patients (sera 1a, 1b, 2, 6, 37, 62, London, SARS-yellow, SARS-green); assay type: binding, human; parameters: Binding of serum 6 to linear peptides of protein X1 of SARS-CoV Urbani / Binding of serum 37 to linear peptides of protein X1 of SARS-CoV Urbani / Binding of serum 6 to looped/cyclic peptide (PEPSCAN-ELISA) / Binding of serum 37 to looped/cyclic peptide (PEPSCAN-ELISA) / Binding of serum 37 to looped/cyclic peptides of protein X1 of SARS-CoV Urbani / Binding of serum 6 to linear peptides of protein X2 / Binding of serum 37 to linear peptides of protein X2 / Binding of serum 37 to looped/cyclic peptides of protein X2 of SARS-CoV Urbani / Binding of serum 6 to linear peptides of protein M of SARS-CoV Urbani / Binding of serum 37 to linear peptides of protein M of SARS-CoV Urbani / Binding of serum 6 to looped/cyclic peptides of protein M of SARS-CoV Urbani / Binding of serum 37 to looped/cyclic peptides of protein M of SARS-CoV Urbani / Binding of serum 6 to linear peptides of protein X3 of SARS-CoV Urbani / Binding of serum 37 to linear peptides of protein X3 of SARS-CoV Urbani / Binding of serum 37 to looped/cyclic peptides of protein X3 of SARS-CoV Urbani / Binding of serum 6 to linear peptides of protein X4 of SARS-CoV Urbani / Binding of serum 37 to linear peptides of protein X4 of SARS-CoV Urbani / Binding of serum 37 to looped/cyclic peptides of protein X4 of SARS-CoV Urbani / Binding of serum 6 to linear peptides of protein X5 of SARS-CoV Urbani / Binding of serum 37 to linear peptides of protein X5 of SARS-CoV Urbani / Binding of serum 37 to looped/cyclic peptides of protein X5 of SARS-CoV Urbani / Binding of serum 6 to linear peptides of protein N of SARS-CoV Urbani / Binding of serum 37 to linear peptides of protein N of SARS-CoV Urbani / Binding of serum 6 to linear peptide (PEPSCAN-ELISA) / Binding of serum 1a to looped/cyclic peptides of protein N of SARS-CoV Urbani / Binding of serum 1b to looped/cyclic peptides of protein N of SARS-CoV Urbani / Binding of serum 2 to looped/cyclic peptides of protein N of SARS-CoV Urbani / Binding of serum 6 to looped/cyclic peptides of protein N of SARS-CoV Urbani / Binding of serum 37 to looped/cyclic peptides of protein N of SARS-CoV Urbani / Binding of serum 62 to looped/cyclic peptides of protein N of SARS-CoV Urbani / Binding of serum London to looped/cyclic peptides of protein N of SARS-CoV Urbani / Binding of serum SARS-green to looped/cyclic peptides of protein N of SARS-CoV Urbani: unit not given here
# [3] = system: control sera (pooled serum of ten healthy LUMC hospital workers; commercial negative donor pooled serum from the Dutch bloodbank); assay type: binding, human; parameters: Binding of Control serum LUMC to linear peptides / Binding of Control serum Blood-bank to linear peptides / Binding of Control serum LUMC to looped peptides / Binding of Control Serum Blood-Bank to Looped peptides / Binding of Control serum LUMC to linear peptides of the protein M of SARS-CoV Urbani / Binding of Control serum Blood-bank to linear peptides of the protein M of SARS-CoV Urbani / Binding of Control serum LUMC to looped peptides of the protein M of SARS-CoV Urbani / Binding of Control Serum Blood-Bank to Looped peptides of the protein M of SARS-CoV Urbani: unit not given here
Sequence,Rabbit serum linear peptides [1],Rabbit serum looped peptides [1],Binding of serum 1a to linear peptides of protein M of SARS-CoV Urbani [2],Binding of serum 1a to looped/cyclic peptides of protein M of SARS-CoV Urbani [2],Binding of serum 1b to linear peptides of protein M of SARS-CoV Urbani [2],Binding of serum 1b to looped/cyclic peptides of protein M of SARS-CoV Urbani [2],Binding of serum 2 to linear peptides of protein M of SARS-CoV Urbani [2],Binding of serum 2 to looped/cyclic peptides of protein M of SARS-CoV Urbani [2],Binding of serum 6 to linear peptides of protein M of SARS-CoV Urbani [2],Binding of serum 6 to looped/cyclic peptides of protein M of SARS-CoV Urbani [2],Binding of serum 37 to linear peptides of protein M of SARS-CoV Urbani [2],Binding of serum 37 to looped/cyclic peptides of protein M of SARS-CoV Urbani [2],Binding of serum 62 to linear peptides of protein M of SARS-CoV Urbani [2],Binding of serum 62 to looped/cyclic peptides of protein M of SARS-CoV Urbani [2],Binding of serum London to linear peptides of protein M of SARS-CoV Urbani [2],Binding of serum London to looped/cyclic peptides of protein M of SARS-CoV Urbani [2],Binding of serum SARS-green to linear peptides of protein M of SARS-CoV Urbani [2],Binding of serum SARS-green to looped/cyclic peptides of protein M of SARS-CoV Urbani [2],Binding of serum SARS-yellow to linear peptides of protein M of SARS-CoV Urbani [2],Binding of serum SARS-yellow to looped/cyclic peptides of protein M of SARS-CoV Urbani [2],further results
FLAWIMLLQFAYSNR,0.3,0.5,0.7,0.8,0.6,0.8,0.5,0.6,0.4,0.9,0.4,0.7,0.4,0.6,0.4,0.7,0.5,0.5,0.2,0.7,Binding of Control Serum Blood-Bank to Looped peptides of the protein M of SARS-CoV Urbani [3]: 0.8; Binding of Control serum Blood-bank to linear peptides of the protein M of SARS-CoV Urbani [3]: 0.5; Binding of Control serum LUMC to linear peptides of the protein M of SARS-CoV Urbani [3]: 0.5; Binding of Control serum LUMC to looped peptides of the protein M of SARS-CoV Urbani [3]: 0.7
FLFLAWIMLLQFAYS,0.2,0.3,0.7,0.8,0.6,0.7,0.4,0.6,0.4,0.9,0.4,0.7,0.4,0.8,0.3,0.3,0.4,0.3,0.2,0.4,Binding of Control Serum Blood-Bank to Looped peptides of the protein M of SARS-CoV Urbani [3]: 0.8; Binding of Control serum Blood-bank to linear peptides of the protein M of SARS-CoV Urbani [3]: 0.5; Binding of Control serum LUMC to linear peptides of the protein M of SARS-CoV Urbani [3]: 0.5; Binding of Control serum LUMC to looped peptides of the protein M of SARS-CoV Urbani [3]: 0.7
